Measurements taken from ChEMBL document CHEMBL1201862, “PubChem BioAssay data set” (2004).
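Results reflect a 48-hour exposure of cells in 96-well plates to compound at five concentrations. GI50 is the concentration that inhibits growth by half.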 Activity calls are given as the source filed them. Cut-off read from the data, not from the text of the source: active = GI50 up to about 1.1 µM and inactive = higher.

How the values were obtained:
Experiment in all cases: NCI-60 cell line screen, 48 h
MDA-MB-435 = system: MDA-MB-435
NCI-H23 = system: NCI-H23
MDA-N = system: MDA-N
BT-549 = system: BT-549
EKVX = system: EKVX
NCI-H226 = system: NCI-H226
HOP-62 = system: HOP-62
SF-268 = system: SF-268
HOP-92 = system: HOP-92
SNB-19 = system: SNB-19
786-0 = system: 786-0
HCT-15 = system: HCT-15
SK-MEL-5 = system: SK-MEL-5
OVCAR-8 = system: OVCAR-8
MCF7 = system: MCF7
OVCAR-5 = system: OVCAR-5
RPMI-8226 = system: RPMI-8226
UO-31 = system: UO-31
A498 = system: A498
OVCAR-3 = system: OVCAR-3
CCRF-CEM = system: CCRF-CEM
CAKI-1 = system: CAKI-1
MOLT-4 = system: MOLT-4
SF-539 = system: SF-539
TK-10 = system: TK-10
SNB-75 = system: SNB-75
NCI-H460 = system: NCI-H460
IGROV-1 = system: IGROV-1
M14 = system: M14
UACC-257 = system: UACC-257
HT-29 = system: HT-29
NCI/ADR-RES = system: NCI/ADR-RES
ACHN = system: ACHN
SN12C = system: SN12C
SW-620 = system: SW-620
SK-MEL-2 = system: SK-MEL-2
K562 = system: K562
SK-MEL-28 = system: SK-MEL-28
PC-3 = system: PC-3
U-251 = system: U-251
LOX IMVI = system: LOX IMVI
UACC-62 = system: UACC-62
MDA-MB-231 = system: MDA-MB-231
OVCAR-4 = system: OVCAR-4
Malme-3M = system: Malme-3M
KM12 = system: KM12
SR = system: SR
SF-295 = system: SF-295
HCT-116 = system: HCT-116
NCI-H522 = system: NCI-H522
SK-OV-3 = system: SK-OV-3
A549 = system: A549
HCC 2998 = system: HCC 2998
COLO 205 = system: COLO 205
DU-145 = system: DU-145
Hs-578T = system: Hs-578T
RXF 393 = system: RXF 393
HL-60 = system: HL-60

Measured: GI50

CC(=O)NC(CC(C)C)C(=O)NC(CC(C)C)C(=O)NC(C=O)CCCNC(=N)N (configuration not stated)
> 100 µM: HCT-15
inactive: MDA-MB-435 > 100 µM | NCI-H23 > 100 µM | MDA-N > 100 µM | BT-549 > 100 µM | EKVX > 100 µM | NCI-H226 42.3 µM | HOP-62 > 100 µM | SF-268 > 100 µM | HOP-92 > 100 µM | SNB-19 > 100 µM | 786-0 > 100 µM | SK-MEL-5 > 100 µM | OVCAR-8 > 100 µM | MCF7 > 100 µM | OVCAR-5 > 100 µM | RPMI-8226 > 100 µM | UO-31 > 100 µM | A498 > 100 µM | OVCAR-3 > 100 µM | CCRF-CEM > 100 µM | CAKI-1 > 100 µM | MOLT-4 65 µM | SF-539 > 100 µM | TK-10 > 100 µM | SNB-75 > 100 µM | NCI-H460 > 100 µM | IGROV-1 > 100 µM | M14 > 100 µM | UACC-257 > 100 µM | HT-29 > 100 µM | NCI/ADR-RES > 100 µM | ACHN > 100 µM | SN12C > 100 µM | SW-620 > 100 µM | SK-MEL-2 > 100 µM | K562 > 100 µM | SK-MEL-28 > 100 µM | PC-3 > 100 µM | U-251 > 100 µM | LOX IMVI > 100 µM | UACC-62 > 100 µM | MDA-MB-231 > 100 µM | OVCAR-4 > 100 µM | Malme-3M 72.6 µM | KM12 > 100 µM | SR > 100 µM | SF-295 > 100 µM | HCT-116 > 100 µM | NCI-H522 > 100 µM | SK-OV-3 > 100 µM | A549 > 100 µM | HCC 2998 > 100 µM | COLO 205 > 100 µM | DU-145 > 100 µM

COC(=O)[C@@H]1[C@H](O)CCC2=C(CC(=O)c3ccoc3)[C@H](C)CC[C@]21C
46.1 µM: HCT-15
inactive: NCI-H23 30.3 µM | MDA-N 24.5 µM | BT-549 18.8 µM | EKVX > 50 µM | NCI-H226 46.2 µM | HOP-62 > 50 µM | HOP-92 > 50 µM | SNB-19 > 50 µM | 786-0 > 50 µM | SK-MEL-5 18.1 µM | OVCAR-8 35.8 µM | MCF7 26.4 µM | OVCAR-5 > 50 µM | UO-31 19.5 µM | A498 > 50 µM | OVCAR-3 26.2 µM | CAKI-1 > 50 µM | SF-539 > 50 µM | TK-10 > 50 µM | SNB-75 16.7 µM | NCI-H460 23.9 µM | IGROV-1 > 50 µM | M14 41.2 µM | UACC-257 22.9 µM | HT-29 44.3 µM | NCI/ADR-RES 22.2 µM | Hs-578T > 50 µM | ACHN > 50 µM | SN12C > 50 µM | SW-620 36.9 µM | SK-MEL-2 > 50 µM | K562 16.8 µM | SK-MEL-28 > 50 µM | PC-3 23.4 µM | U-251 41.2 µM | LOX IMVI 27.5 µM | UACC-62 25.4 µM | MDA-MB-231 > 50 µM | OVCAR-4 45 µM | RXF 393 41.7 µM | Malme-3M > 50 µM | KM12 36.1 µM | SF-295 31.4 µM | HCT-116 22.6 µM | SK-OV-3 > 50 µM | A549 > 50 µM | HCC 2998 > 50 µM | COLO 205 > 50 µM

CNC1(c2cc3ccccc3s2)CCCCC1
inactive: MDA-MB-435 16.8 µM | NCI-H23 57.4 µM | MDA-N 19.9 µM | BT-549 67 µM | NCI-H226 32.7 µM | HOP-62 33.9 µM | SF-268 14.2 µM | HOP-92 14.3 µM | SNB-19 41.8 µM | 786-0 19.2 µM | SK-MEL-5 16.3 µM | OVCAR-8 37.2 µM | MCF7 29.5 µM | OVCAR-5 20.5 µM | UO-31 46.9 µM | A498 33.3 µM | OVCAR-3 28.2 µM | CAKI-1 42.1 µM | MOLT-4 42.2 µM | SF-539 20.4 µM | TK-10 44.2 µM | SNB-75 21.5 µM | NCI-H460 17.7 µM | IGROV-1 19.1 µM | M14 18 µM | UACC-257 18.2 µM | HT-29 14.8 µM | NCI/ADR-RES 33.3 µM | ACHN 42.6 µM | SN12C 38.1 µM | K562 31.8 µM | PC-3 18.1 µM | U-251 17.8 µM | LOX IMVI 19.9 µM | UACC-62 20.6 µM | MDA-MB-231 23.2 µM | OVCAR-4 27.7 µM | RXF 393 23.4 µM | KM12 17.9 µM | SR 25 µM | SF-295 25 µM | HCT-116 41.5 µM | NCI-H522 12.7 µM | SK-OV-3 39 µM | A549 48.1 µM | HCC 2998 14.9 µM | COLO 205 18.9 µM | DU-145 40.1 µM
active: EKVX 0.433 µM | CCRF-CEM < 0.01 µM | SW-620 < 0.01 µM | HL-60 < 0.01 µM
31.8 µM: HCT-15
